# Experiments:
# [1] = system: vomiting induced by morphine in ferrets; test: Vomiting induced by morphine in ferrets, oral dosing; assay type: in vivo; details: morphine 0.3 mg/kg subcutaneous; for A: Number of ferrets with retching/number of tested ferrets / B: Frequency of retching (mean ± SD) / C: Time period until first retching (minute; mean ± SD) / D: Duration of retching (minute; mean ± SD) / E: Number of ferrets with vomiting/number of tested ferrets / F: Frequency of vomiting (mean ± SD) / G: Time period until first vomiting (minute; mean ± SD) / H: Duration of vomiting (minute; mean ± SD): 30 minutes
# Method: Male 6 or 7 ferrets (1.6 to 2.0 kg) per one group were used. Morphine was subcutaneously administered at0.3 mg/0.3 ml/kg. 2.5 hours before morphine dosing, a small amount of a feed was given to the animals. 30 minutes thereafter, predetermined doses of the compound No. 3 were orally given. To a control animal group under no fasting was orally given a predetermined volume of 0.5 % methyl cellulose solution. A predetermined volume of ondansetron was orally given to the animals under fasting. To a control animal group of ondansetron under fasting was orally given a predetermined volume of physiological saline. The frequency of vomiting was counted up to 30 minutes after morphine dosing. The compound No. 3 was suspended in 0.5 % methyl cellulose solution and was then orally dosed at a ratio of 1 ml per 1 kg body weight. An injection of ondansetron at a concentration of 0.2 w/v % was orally dosed. Additionally, 0.5 % methyl cellulose solution was orally given at a ratio of 1 ml per 1 kg body weight, while physiological saline was orally given at a ratio of 1 ml per 1 kg body weight. The data relating to the frequency of vomiting, the latency and the time period from the occurrence of vomiting to the termination thereof were statistically analyzed by the Dunnett test or t test, with reference to the difference from the control group.
# The retching suppression ratio and vomiting suppression ratio were calculated by the following formula. [Frequency of retching or vomiting in control] - [Frequency of retching or vomiting in animals dosed with compound No. 3] / [Frequency of retching or vomiting in control] x 100 (%) [formula]
# [2] = system: acute vomiting induced by a central emetic agent loperamide in dogs; test: Acute vomiting induced by loperamide in dogs; assay type: in vivo, beagle dogs; details: loperamide 1 mg/kg subcutaneous; for B: Frequency of vomiting (mean ± SD) / C: Time period until first vomiting (minute; mean ± SD) / D: Duration of vomiting (minute; mean ± SD) / Number of dogs with vomiting/number of tested dogs: 3 hours
# Method: 3 male or female beagle dogs (7.7 to 12.7 kg) per one group were used. Loperamide was subcutaneously given at 1 mg/ml/kg. 2.5 hours prior to loperamide administration, a small amount of a feed was given to the animals. 30 minutes thereafter, predetermined doses of the compound No. 3 were orally given. Similarly, 0.5 % methyl cellulose solution was orally given to a control animal group under no fasting. Predetermined doses of naloxone and ondansetron were given intravenously and orally, respectively to the animals under fasting, 30 minutes prior to loperamide administration. The frequency of vomiting was counted, up to 3 hours after loperamide administration. The compound No. 3 was dissolved in 0.5 % methyl cellulose solution, for oral dosing at a ratio of 0.25 to 1 ml per 1 kg body weight. Additionally, naloxone was intravenously given in a solution at a concentration of 0.05 % w/v. An injection of ondansetron at a concentration of 0.2 % w/v was orally given. Still additionally, 0.5 % methyl cellulose solution was orally given at a ratio of 1 ml per 1 kg body weight. The data relating to the frequency of vomiting, the latency and the time period from the occurrence of vomiting to the termination thereof were statistically analyzed by the Dunnett test, with reference to the difference from the control group.
# The vomiting suppression ratio was calculated by the following formula. [Frequency of retching or vomiting in control] - [Frequency of retching or vomiting in animals dosed with compound No. 3] / [frequency of retching or vomiting in control] x 100 (%) [formula]
smiles,measurement,setting,value
"Cc1nccn1CC1CCc2c(c3ccccc3n2C)C1=O (centres unmarked) [Ondansetron, ondansetron, reference compound]",Acute vomiting suppression ratio,[1]; 3 mg/kg p.o.,0 % NS
same,Effect on retching and vomiting (in words),[1]; 3 mg/kg p.o.,did not suppress
same,Pseudo-vomiting suppression ratio,[1]; 3 mg/kg p.o.,12 % NS
same,A: Number of ferrets with retching/number of tested ferrets,"[1]; 3 mg/kg p.o., under fasting",5/6
same,B: Frequency of retching (mean ± SD),"[1]; 3 mg/kg p.o., under fasting",17.2 ± 6.4
same,C: Time period until first retching (minute; mean ± SD),"[1]; 3 mg/kg p.o., under fasting",8.8 ± 4.3 min
same,D: Duration of retching (minute; mean ± SD),"[1]; 3 mg/kg p.o., under fasting",5.0 ± 2.3 min
same,E: Number of ferrets with vomiting/number of tested ferrets,"[1]; 3 mg/kg p.o., under fasting",5/6
same,F: Frequency of vomiting (mean ± SD),"[1]; 3 mg/kg p.o., under fasting",2.3 ± 1.2
same,G: Time period until first vomiting (minute; mean ± SD),"[1]; 3 mg/kg p.o., under fasting",9.2 ± 4.2 min
same,H: Duration of vomiting (minute; mean ± SD),"[1]; 3 mg/kg p.o., under fasting",3.7 ± 2.6 min
same,Effect on vomiting (in words),[2]; 10 mg/kg p.o.,did not suppress
same,Vomiting suppression ratio,[2]; 10 mg/kg p.o.,3 % NS
same,B: Frequency of vomiting (mean ± SD),[2]; 10 mg/kg p.o.,9.7 ± 2.7
same,C: Time period until first vomiting (minute; mean ± SD),[2]; 10 mg/kg p.o.,0.50 ± 0.14 min
same,D: Duration of vomiting (minute; mean ± SD),[2]; 10 mg/kg p.o.,1.30 ± 0.11 min
same,Number of dogs with vomiting/number of tested dogs,[2]; 10 mg/kg p.o.,3/3
"Cc1ccc(-c2c3n(c(=O)c4ncccc24)CC[C@@H](C)CN(Cc2cc(C(F)(F)F)cc(C(F)(F)F)c2)C3=O)cc1 [Cpd. No.3, (9R)-7-[3,5-bis(trifluoromethyl)benzyl]-6,7,8,9,10,11-hexahydro-9-methyl-5-(4-methylphenyl)-6,13-dioxo-13H-[1,4]diazocino[2,1-g][1,7]naphthylidine]",Acute vomiting suppression ratio,[1]; 1 mg/kg p.o.,31 % NS
same,Effect on retching and vomiting (in words),[1]; 1 mg/kg p.o.,likely to be suppressed
same,Pseudo-vomiting suppression ratio,[1]; 1 mg/kg p.o.,43 % NS
same,A: Number of ferrets with retching/number of tested ferrets,[1]; 1 mg/kg p.o.,4/6
same,B: Frequency of retching (mean ± SD),[1]; 1 mg/kg p.o.,18.3 ± 7.0
same,C: Time period until first retching (minute; mean ± SD),[1]; 1 mg/kg p.o.,12.3 ± 5.6 min
same,D: Duration of retching (minute; mean ± SD),[1]; 1 mg/kg p.o.,5.5 ± 1.9 min
same,E: Number of ferrets with vomiting/number of tested ferrets,[1]; 1 mg/kg p.o.,4/6
same,F: Frequency of vomiting (mean ± SD),[1]; 1 mg/kg p.o.,2.5 ± 1.0
same,G: Time period until first vomiting (minute; mean ± SD),[1]; 1 mg/kg p.o.,13.3 ± 5.4 min
same,H: Duration of vomiting (minute; mean ± SD),[1]; 1 mg/kg p.o.,3.8 ± 1.9 min
same,Acute vomiting suppression ratio,[1]; 3 mg/kg p.o.,86 % a
same,Effect on retching and vomiting (in words),[1]; 3 mg/kg p.o.,significantly suppressed
same,Pseudo-vomiting suppression ratio,[1]; 3 mg/kg p.o.,79 % b
same,A: Number of ferrets with retching/number of tested ferrets,[1]; 3 mg/kg p.o.,5/6
same,B: Frequency of retching (mean ± SD),[1]; 3 mg/kg p.o.,6.8 ± 2.6 b
same,C: Time period until first retching (minute; mean ± SD),[1]; 3 mg/kg p.o.,10.5 ± 3.9 min
same,D: Duration of retching (minute; mean ± SD),[1]; 3 mg/kg p.o.,2.7 ± 1.7 min
same,E: Number of ferrets with vomiting/number of tested ferrets,[1]; 3 mg/kg p.o.,1/6
same,F: Frequency of vomiting (mean ± SD),[1]; 3 mg/kg p.o.,0.5 ± 0.5 a
same,G: Time period until first vomiting (minute; mean ± SD),[1]; 3 mg/kg p.o.,25.8 ± 4.2 b minute
same,H: Duration of vomiting (minute; mean ± SD),[1]; 3 mg/kg p.o.,1.5 ± 1.5 min
same,Vomiting suppression ratio,[2]; 0.01 mg/kg p.o.,20 % NS
same,B: Frequency of vomiting (mean ± SD),[2]; 0.01 mg/kg p.o.,8.0 ± 2.5
same,C: Time period until first vomiting (minute; mean ± SD),[2]; 0.01 mg/kg p.o.,0.74 ± 0.07 min
same,D: Duration of vomiting (minute; mean ± SD),[2]; 0.01 mg/kg p.o.,1.24 ± 0.21 min
same,Number of dogs with vomiting/number of tested dogs,[2]; 0.01 mg/kg p.o.,3/3
same,Effect on vomiting (in words),[2]; 0.03 mg/kg or higher p.o.,significantly suppressed
same,Vomiting suppression ratio,[2]; 0.03 mg/kg p.o.,80 % a
same,B: Frequency of vomiting (mean ± SD),[2]; 0.03 mg/kg p.o.,2.0 ± 0.6 a
same,C: Time period until first vomiting (minute; mean ± SD),[2]; 0.03 mg/kg p.o.,1.08 ± 0.11 min
same,D: Duration of vomiting (minute; mean ± SD),[2]; 0.03 mg/kg p.o.,0.44 ± 0.22 min
same,Number of dogs with vomiting/number of tested dogs,[2]; 0.03 mg/kg p.o.,3/3
same,Vomiting suppression ratio,[2]; 0.1 mg/kg p.o.,73 % a
same,B: Frequency of vomiting (mean ± SD),[2]; 0.1 mg/kg p.o.,2.7 ± 2.2 a
same,C: Time period until first vomiting (minute; mean ± SD),[2]; 0.1 mg/kg p.o.,1.98 ± 0.55 a minute
same,D: Duration of vomiting (minute; mean ± SD),[2]; 0.1 mg/kg p.o.,0.59 ± 0.59 min
same,Number of dogs with vomiting/number of tested dogs,[2]; 0.1 mg/kg p.o.,2/3
same,Vomiting suppression ratio,[2]; 1 mg/kg p.o.,67 % a
same,B: Frequency of vomiting (mean ± SD),[2]; 1 mg/kg p.o.,3.3 ± 1.2 a
same,C: Time period until first vomiting (minute; mean ± SD),[2]; 1 mg/kg p.o.,1.25 ± 0.35 min
same,D: Duration of vomiting (minute; mean ± SD),[2]; 1 mg/kg p.o.,0.68 ± 0.34 min
same,Number of dogs with vomiting/number of tested dogs,[2]; 1 mg/kg p.o.,3/3
same,Vomiting suppression ratio,[2]; 3 mg/kg p.o.,70 % a
same,B: Frequency of vomiting (mean ± SD),[2]; 3 mg/kg p.o.,3.0 ± 0.6 a
same,C: Time period until first vomiting (minute; mean ± SD),[2]; 3 mg/kg p.o.,1.63 ± 0.34 min
same,D: Duration of vomiting (minute; mean ± SD),[2]; 3 mg/kg p.o.,0.38 ± 0.13 a minute
same,Number of dogs with vomiting/number of tested dogs,[2]; 3 mg/kg p.o.,3/3
same,Effect on vomiting (in words),[2]; 10 mg/kg p.o.,completely suppressed
same,Vomiting suppression ratio,[2]; 10 mg/kg p.o.,100 % b
same,B: Frequency of vomiting (mean ± SD),[2]; 10 mg/kg p.o.,0 b
same,C: Time period until first vomiting (minute; mean ± SD),[2]; 10 mg/kg p.o.,3 b minute
same,D: Duration of vomiting (minute; mean ± SD),[2]; 10 mg/kg p.o.,0 b minute
same,Number of dogs with vomiting/number of tested dogs,[2]; 10 mg/kg p.o.,0/3
